Results reported in patent US11123323B2, “Monoterpenes for treating respiratory disorders, in particular bronchopulmonary disorders” (Maria Clemetine Martin Klosterfrau Vertriebsqesellschaft MBH, priority 2008, dated 2021).

Legend:
[1] = test system: FCS-stimulated production of superoxides (O2^−) in normal human monocytes; test: FCS-stimulated superoxide production of normal human monocytes in vitro (INT-formazan); assay type: cell-based; settings: for O2^−: FCS 10%
Method: As already described, monocytes were isolated from 50 ml of venous blood which was repeatedly donated voluntarily for the experiments by healthy non-smoking subjects (n=4). […] To this end, the active compounds were incubated together with freshly isolated monocytes (10^5/ml) and the FCS stimulus (10%, from Sigma) for 20 hours in a cell culture medium (RPMI-1640, from Sigma). […] The determination of the cytosolic superoxide production is based on the reduction of the dye p-iodonitrotetrazolium violet (INTV), which reacts specifically with superoxide ions, to iodonitrotetrazolium formazan (formazan). INTV is taken up by the cells into the cytosol. Intracellularly, the nitrogen cycle of the INTV is reduced by free superoxide radicals, giving rise to a water-soluble intermediate and the water-insoluble formazan, which have their absorption maxima at 505 and 490 nm, respectively. […] At the end of an experiment, the cell lysate is (after treatment with hydrochloric acid) measured at 492 nm in a photometer. Here, the absorption of light is proportional to the amount of intracellularly accumulated INT-formazan which can then be determined using a formazan calibration curve. The INT-formazan accumulation for its part is determined as a measure for the intracellular production of superoxide.

[2] = test system: IL-1beta production in LPS-stimulated human monocytes; test: LPS-stimulated production of IL-1beta in human monocytes in vitro (ELISA); assay type: cell-based; settings: for IL-1beta: LPS, 20 hours
Text: 1,8-Cineol intensifies in particular the action of subtherapeutic concentrations of beclometasone which are relevant for the peripheral respiratory tract.

[3] = becl. 10^−9 mol/l, Table 5 series
[4] = becl. 10^−9 mol/l, Table 6 series
[5] = becl. 10^−10 mol/l, Table 5 series
[6] = becl. 10^−10 mol/l, Table 6 series
[7] = becl. 10^−11 mol/l, Table 5 series
[8] = becl. 10^−11 mol/l, Table 6 series

Compound: C[C@H]1C[C@H]2[C@@H]3CCC4=CC(=O)C=C[C@]4(C)[C@@]3(Cl)[C@@H](O)C[C@]2(C)[C@@]1(O)C(=O)CO [beclometasone]
- O2^− [1, 3]: 16052 ± 969 nmol/mL
- O2^− [1, 4]: 17338 ± 1305 nmol/mL
- Percent of control [1, 3]: −10 ± 6%
- Percent of control [1, 4]: −8 ± 7%
- O2^− [1, 5]: 16445 ± 903 nmol/mL
- O2^− [1, 6]: 17577 ± 1191 nmol/mL
- Percent of control [1, 5]: −8 ± 5%
- Percent of control [1, 6]: −6 ± 7%
- O2^− [1, 7]: 16562 ± 1081 nmol/mL
- O2^− [1, 8]: 17639 ± 1372 nmol/mL
- Percent of control [1, 7]: −7 ± 6%
- Percent of control [1, 8]: −6 ± 8%
- O2^− ([1]; beclometasone 10^−6 mol/l, 20 hours, Table 3 series): 18240 ± 463 nmol/mL
- O2^− ([1]; beclometasone 10^−7 mol/l, 20 hours, Table 3 series): 16782 ± 678 nmol/mL
- Percent of control ([1]; beclometasone 10^−7 mol/l, vs FCS control, Table 3 series): +5.8 ± 4%
- O2^− ([1]; beclometasone 10^−8 mol/l, 20 hours, Table 3 series): 16035 ± 639 nmol/mL
- Percent of control ([1]; beclometasone 10^−8 mol/l, vs FCS control, Table 3 series): −1.1 ± 4%
- O2^− ([1]; beclometasone 10^−9 mol/l, 20 hours, Table 3 series): 14192 ± 733 nmol/mL
- Percent of control ([1]; beclometasone 10^−9 mol/l, vs FCS control, Table 3 series): −10.5±5%
- O2^− ([1]; beclometasone 10^−10 mol/l, 20 hours, Table 3 series): 14702 ± 682 nmol/mL
- Percent of control ([1]; beclometasone 10^−10 mol/l, vs FCS control, Table 3 series): −7.3 ± 5%
- O2^− ([1]; beclometasone 10^−11 mol/l, 20 hours, Table 3 series): 15042 + 568 nmol/ml
- Percent of control ([1]; beclometasone 10^−11 mol/l, vs FCS control, Table 3 series): −5.1 ± 3%
- effect on the O2^− production ([1]; beclometasone 10^−11 to 10^−9 mol/l on its own, Table 6 series): no detectable effect on the O2^− production
- O2^− ([1]; beclometasone 10^−12 mol/l, 20 hours, Table 3 series): 15050 ± 455 nmol/mL
- Percent of control ([1]; beclometasone 10^−12 mol/l, vs FCS control, Table 3 series): −5.1 ± 3%
- monocyte O2^− production ([1]; high concentrations (10^−8 mol/l and above) of beclometasone, FIG. 4): stimulated the monocyte O2^− production
- Effect vs. cineol 10^−6 mol/l Inhibition (%) ([2]; beclometasone 10^−9 mol/l): 25.2 ± 20%
- Effect vs. control Inhibition (%) ([2]; beclometasone 10^−9 mol/l): 49.4 ± 20%
- IL-1beta ([2]; beclometasone 10^−9 mol/l): 2654 ± 545 Pg/5 × 10^4 cells
- Effect vs. control Inhibition (%) ([2]; beclometasone 10^−10 mol/l): 22.9 ± 23%
- production of IL-1beta, change ([2]; beclometasone 10^−10 mol/l): −22.9%
- Effect vs. cineol 10^−6 mol/l Inhibition (%) ([2]; beclometasone 10^−10 mol/l, (+) in brackets = more IL-1beta than with cineol): (+14 ± 23) %
- IL-1beta ([2]; beclometasone 10^−10 mol/l): 4047 ± 940 Pg/5 × 10^4 cells
- Effect vs. control Inhibition (%) ([2]; beclometasone 10^−11 mol/l): 19.7 ± 20%
- production of IL-1beta, change ([2]; beclometasone 10^−11 mol/l): −19.7%
- Effect vs. cineol 10^−6 mol/l Inhibition (%) ([2]; beclometasone 10^−11 mol/l, (+) in brackets = more IL-1beta than with cineol): (+18.9 ± 20) %
- IL-1beta ([2]; beclometasone 10^−11 mol/l): 4217 ± 864 Pg/5 × 10^4 cells
- Effect vs. control Inhibition (%) ([2]; beclometasone 10^−12 mol/l): 0.1 ± 19%
- production of IL-1beta, change ([2]; beclometasone 10^−12 mol/l): 0%
- Effect vs. cineol 10^−6 mol/l Inhibition (%) ([2]; beclometasone 10^−12 mol/l, (+) in brackets = more IL-1beta than with cineol): (+47.8 ± 19) %
- IL-1beta ([2]; beclometasone 10^−12 mol/l): 5246 ± 1028 Pg/5 × 10^4 cells
- inhibition of LPS-stimulated production of IL-1beta ([2]; beclometasone on its own, concentration not given): 49.9±20%
